We go through 18 compounds from patent US20110306638A1, “BENZISOXAZOLE PIPERIDINYL DERIVATIVES, PHARMACEUTICAL COMPOSITIONS COMPRISING THE DERIVATIVES AND THEIR USE” (NHWA PHARMA. CORPORATION, priority 2008, published 2011).

Read-outs that look alike come from different tables or passages of the source. Marks after values point to notes of the source that are not given here.

Assay [1] concerns Kunming mice. Description: Acetic acid-induced abdominal writhing test in mice. It counts as in vivo. The protocol:
Kunming mice, SPF KM mice purchased from […] SLAC LABORATORY ANIMAL CO. LTD and kept in normal environment.
The compounds were dissolved in water for injection at a concentration of 4 mg/ml, 2 mg/ml and 1 mg/ml and were given intragastrically to animals.
(§1) Three different doses (10, 20, and 40 mg/kg) were administered to the test groups.
Aspirin was used as a positive control and acetic acid writhing test was used.
30 mice (half male and half female) weighing 18-23 g were divided into five groups, including negative control group, positive control group, low dose group, medium dose group and high dose group:
Mice in test group received test drug (10 mg/kg, 20 mg/kg, 40 mg/kg) via intragastric administration. Negative control group received physiological saline (20 ml/kg) via oral administration. Positive control group received aspirin (200 mg/kg) via oral administration. One hour later, each group received 0.7% acetic acid 10 ml/kg intraperitoneally. Five minutes later, the number of writhes was counted within the subsequent 15 min period; inhibition percentage of writhing response in each test group was calculated by the following equation: […]
In general terms: Writhing tests count abdominal constrictions after an irritant is injected.

The target in a further assay is T1, 5-HT2A receptor (Homo sapiens, UniProt P28223).
T1 construct: expressed in transfected cells; host or cells: HEK293
Description: In-vitro competitive binding to 5-HT2A receptor, [3H]-Ketanserin, transformed HEK293 cells. Particulars: for inhibition at 10 µM: read-out: 5-HT2A [3H]-Ketanserin inhibition percentage; for IC50 / Ki: affinity to 5-HT2A receptor, concentration gradient test; for inhibitory activity on 5-HT2A (in words): compared with Aripiprazole. The protocol: All test samples were dissolved in DMSO at a concentration of 0.01 mol/L, and then diluted with deionized water to 100 umol/L.
HEK293 cells were transformed with plasmid carriers containing the gene coding for 5-HT2A receptor protein by using calcium phosphate transformation. Stable cell strains which could stably express 5-HT2A receptor protein were obtained from the transformed cells by cultivating in a culture media containing G418, selecting monoclones of the cell and performing radioactive ligand binding assay.
Beckman LS 6500 Scintillation Counter.
HEK-293 cells were infected with recombined viruses containing various genes described above. […] Cells were centrifuged at 1000 rpm for 5 min Culture media was discarded, and cell bodies were collected and stored at −20° C. in a freezer. The cell bodies were resuspended with Tris-HCl reaction buffer during assay.
After incubation at 37° C. for 15 min, the reaction mixture was immediately transferred into ice bath to terminate the reaction; the reaction mixture was quickly filtered through GF/C glass cellulose filter on a Millipore cell sample collector, and was then washed with eluting solution (50 mM Tris-HCl, PH 7.7, 3 ml×3) and dried in a microwave for 8-9 min. The filter was transferred into a 0.5 ml centrifuge tube, and 500 μl lipid soluble scintillation fluid was added. The centrifuge tube was allowed to stand in darkness for more than 30 min. Radioactivity was determined by counting Inhibition percentage of each compound on isotope ligand binding was calculated according to the following equation:
inhibition percentage(I %)=cpm of overall binding tube−cpm of compound/cpm of overall binding tube−cpm of nonspecific binding tube×100%.
Each compound was tested in two duplicate test tubes and two separate tests were performed.

Another assay concerns mice. Description: Sedative effects in mice (spontaneous activities). Also noted: unit not given here. It counts as in vivo. Particulars: single dose 20 mg/kg. The protocol: Spontaneous activities of the mice were recorded by alternating current tube, Sedative effects were tested after single dose (20 mg/kg).
Assay [2] deals with T2, 5-HT reuptake by brain synapses (Rattus norvegicus, UniProt P31652).
T2 construct: forehead cortex was obtained for [^3H]5-HT, [^3H]NA reuptake test; from tissue; host or cells: rat (SD) forebrain cortex synaptosomes
The assay is described as follows: [3H]5-HT reuptake test in rat brain synapses. Format: biochemical. Particulars: for inhibitory activity on 5-HT reuptake (in words): at 10 μmol/L, compared with Dutoxetine; for inhibition at 10 µM: final concentration 10 umol/L, rat brain synapses, read-out: 5-HTU [3H] 5-HT reuptake inhibition percentage Mean. On the procedure: The method was as follows:
Male SD rats were killed by cervical dislocation, heads were immediately cut and brains were obtained and put on ice, related brain tissues were dissected (forehead cortex was obtained for [^3H]5-HT, [^3H]NA reuptake test, corpus striatum was obtained for [^3H]DA reuptake).
After the sample was weighed, 10 folds (V/W) ice cold 0.32 mol/L sucrose solution was added.
According to [a. […] 5-HT was added and after incubation in water bath at 37° C. for 10 min, the reaction mixture was immediately taken out of the water bath and 2 ml ice cold 150 mmol/L Tris-HCl was added to terminate the reaction. The sample was collected on a round glass fiber filter by vacuum filtration and washed three times with 3 ml ice cold Tris-HCl buffer. The filter membrane was removed, dried in a far-infrared oven for 15 min, then transferred into a EP tube, in which 1.5 ml scintillation fluid was added, left overnight and detected by a scintillation counter. The test sample was not added into solvent controlled overall binding tube or non-specific binding tube. 50 μl solvent was added into the overall binding tube, and in [^3H] 5-HT reuptake test, 600 μmol/L cocaine was added into the non-specific binding tube.

The subject of assay [3] is Kunming mice. The assay is described as follows: Hot-plate test in mice. It counts as in vivo. The following applies: 1 h post dose. On the procedure: Kunming mice, SPF KM mice were purchased from […] SLAC LABORATORY ANIMAL CO. LTD and kept in normal environment.
The compounds were dissolved in water for injection at a concentration of 4 mg/ml, 2 mg/ml and 1 mg/ml and were given subcutaneously to animals.
as §1
Morphine was used as a positive control and hot plate test was used.
30-40 mice (half male and half female) weighed from 18 to 23 gram were used. First, each mouse was placed on a hot plat at 55° C. to determine basic pain threshold for 2-3 times. Those animals with basic pain threshold of 5-30 s were qualified, unqualified mice were not used. 30 qualified mice were divided into five groups, including negative control group, positive control group, low-dose group, medium-dose group and high-dose group:
Mice in test groups received test sample solution (10 mg/kg, 20 mg/kg, 40 mg/kg) via subcutaneous injection in the neck. Positive control group received subcutaneous injection of morphine (2 mg/kg). One hour later, pain threshold values were determined for mice in each group as post-drug pain threshold. Percentage increase in pain threshold was calculated according to the following equation: […]
(In general: Thermal pain tests record how soon the animal reacts.)

[4] abbreviates: 10 mg/kg intragastric administration.
Where [5] appears, read: 20 mg/kg intragastric administration.
The mark [6] stands for this setting: 40 mg/kg intragastric administration.

T2 sequence (P31652 whole entry): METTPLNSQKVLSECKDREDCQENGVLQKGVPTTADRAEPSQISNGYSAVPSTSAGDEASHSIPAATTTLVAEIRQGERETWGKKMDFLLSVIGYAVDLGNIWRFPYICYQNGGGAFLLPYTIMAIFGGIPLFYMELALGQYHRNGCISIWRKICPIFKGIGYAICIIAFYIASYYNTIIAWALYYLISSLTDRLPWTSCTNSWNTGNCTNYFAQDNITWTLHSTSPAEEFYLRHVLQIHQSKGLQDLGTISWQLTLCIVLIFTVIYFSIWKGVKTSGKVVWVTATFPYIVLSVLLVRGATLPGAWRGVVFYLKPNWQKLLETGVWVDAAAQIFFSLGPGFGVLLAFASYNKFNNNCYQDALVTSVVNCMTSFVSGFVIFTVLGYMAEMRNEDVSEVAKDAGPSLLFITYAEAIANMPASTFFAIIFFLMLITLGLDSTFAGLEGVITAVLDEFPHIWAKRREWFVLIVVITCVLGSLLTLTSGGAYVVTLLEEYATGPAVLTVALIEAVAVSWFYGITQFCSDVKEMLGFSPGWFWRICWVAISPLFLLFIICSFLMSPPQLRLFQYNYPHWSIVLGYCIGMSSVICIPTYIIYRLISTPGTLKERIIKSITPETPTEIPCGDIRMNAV
T1 sequence (P28223 whole entry): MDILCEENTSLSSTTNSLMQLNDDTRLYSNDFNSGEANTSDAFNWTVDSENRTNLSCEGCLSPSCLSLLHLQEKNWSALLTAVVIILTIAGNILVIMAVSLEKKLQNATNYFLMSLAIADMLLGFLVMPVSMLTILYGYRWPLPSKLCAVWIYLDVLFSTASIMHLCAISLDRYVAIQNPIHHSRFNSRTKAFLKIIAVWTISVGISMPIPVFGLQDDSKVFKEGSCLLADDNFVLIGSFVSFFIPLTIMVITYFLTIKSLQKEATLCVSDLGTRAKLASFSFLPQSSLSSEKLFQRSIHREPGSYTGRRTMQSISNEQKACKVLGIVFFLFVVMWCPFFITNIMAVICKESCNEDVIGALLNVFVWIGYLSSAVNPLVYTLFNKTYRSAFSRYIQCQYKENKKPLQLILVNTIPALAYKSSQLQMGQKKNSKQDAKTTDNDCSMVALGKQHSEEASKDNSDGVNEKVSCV

As to `CC(=O)Oc1ccccc1C(=O)O` [Aspirin, reference compound], the “Inhibition percentage of writhing response” value (“Inhibition percentage” below) in the assay with Kunming mice [1] (positive control, 200 mg/kg oral, 1 h before acetic acid) is given as 95.05** %.

As usually defined, the inhibition is the relative decrease from the control value, in per cent. `Fc1ccc2c(C3CCN(CCOn4nnc5ccc(Cl)cc54)CC3)noc2c1` [IV-3, 3-(1-(2-(6-chloro-1H-benzo[d][1,2,3]triazol-1-yloxy)ethyl)piperidin-4-yl)-6-fluorobenzo[d]isoxazole]: the inhibition at 10 µM at 5-HT2A receptor was found to be 92.8%. Further, the Sedative effect with mice is 67*.

Regarding `Fc1ccc2c(C3CCN(CCn4ccc5ccccc54)CC3)noc2c1` [II-1, 3-(1-(2-(1H-indol-1-yl)ethyl)piperidin-4-yl)-6-fluorobenzo[d]isoxazole], at 5-HT2A receptor, the inhibition at 10 µM came out at 99.5%. For the same compound, in the assay with mice, the Sedative effect is 43*.

The IC50 is the concentration at which inhibition is half-maximal. One may read the Ki as a measure of affinity in units of concentration, obtained from inhibition or displacement. With `Fc1ccc2c(C3CCN(CCCCn4ccc5ccc(F)cc54)CC3)noc2c1` [II-8, 6-fluoro-3-(1-(4-(6-fluoro-1H-indol-1-yl)butyl)piperidin-4-yl)benzo[d]isoxazole], the IC50 at 5-HT2A receptor was 5.33 nM. Further, affinity at 5-HT2A receptor was put at a Ki of 2.79 nM. In addition, on 5-HT2A receptor, the “inhibitory activity on 5-HT2A (in words)” value was “potent inhibitory activities”. The inhibition at 10 µM was 100% on 5-HT2A receptor (final concentration 10 umol/L) and 107% in assay [2]. Also, the “inhibitory activity on 5-HT reuptake (in words)” value in assay [2] was “potent inhibitory activities”. For the same compound, the “Inhibition percentage” value with Kunming mice [1] (setting [4]) is recorded as 95.88* %; with Kunming mice [1] (setting [5]), 96.46** %; in the assay with Kunming mice [1] (setting [6]), 100.0** %. The “Percentage increase in pain threshold” value with Kunming mice [3] (10 mg/kg S.c.) is 97.49%; in the assay with Kunming mice [3] (20 mg/kg S.c.), 160.50** %; in the assay with Kunming mice [3] (40 mg/kg S.c.), 172.81* %. The Sedative effect with mice is reported as 42*.

Regarding `Fc1ccc2c(C3CCN(CCCn4ccc5ccc(F)cc54)CC3)noc2c1` [II-5, 6-fluoro-3-(1-(3-(6-fluoro-1H-indol-1-yl)propyl)piperidin-4-yl)benzo[d]isoxazole], the Sedative effect in the assay on mice is given as 65*.

Turning to `N#Cc1ccc2ncn(CCCCN3CCC(c4noc5cc(F)ccc45)CC3)c2c1` [III-3, 1-(4-(4-(6-fluorobenzo[d]isoxazol-3-yl)piperidin-1-yl)butyl)-1H-benzo[d]imidazole-6-carbonitrile], the Sedative effect with mice is reported as 52*.

Regarding `N#Cc1ccc2ccn(OCCCN3CCC(c4noc5cc(F)ccc45)CC3)c2c1` [IV-2, 1-(3-(4-(6-fluorobenzo[d]isoxazol-3-yl)piperidin-1-yl)propoxy)-1H-indole-6-carbonitrile], in the assay with mice, the Sedative effect is 52*.

Take `Fc1ccc2c(C3CCN(CCCn4ccc5ccccc54)CC3)noc2c1` [II-2, 3-(1-(3-(1H-indol-1-yl)propyl)piperidin-4-yl)-6-fluorobenzo[d]isoxazole]: the Sedative effect with mice is 44*.

In the case of `Fc1ccc2c(C3CCN(CCCn4cnc5ccc(F)cc54)CC3)noc2c1` [III-1, 6-fluoro-3-(1-(3-(6-fluoro-1H-benzo[d]imidazol-1-yl)propyl)piperidin-4-yl)benzo[d]isoxazole], the Sedative effect in the assay with mice is 54*.

`N#Cc1ccc2ccn(CCCN3CCC(c4noc5cc(F)ccc45)CC3)c2c1` [II-6, 1-(3-(4-(6-fluorobenzo[d]isoxazol-3-yl)piperidin-1-yl)propyl)-1H-indole-6-carbonitrile] gave an IC50 on 5-HT2A receptor of 4.78 nM. This compound displayed a Ki at 5-HT2A receptor of 3.22 nM. Further, the “inhibitory activity on 5-HT2A (in words)” value at 5-HT2A receptor is recorded as “potent inhibitory activities”. The inhibition at 10 µM at 5-HT2A receptor (final concentration 10 umol/L) was determined as 100%; in assay [2] it was 96.7%. In addition, the “inhibitory activity on 5-HT reuptake (in words)” value in assay [2] is reported as “potent inhibitory activities”. In addition, the “Inhibition percentage” value in the assay with Kunming mice [1] (setting [4]) was 74.09* %; in the assay on Kunming mice [1] (setting [5]), 69.55%; in the assay with Kunming mice [1] (setting [6]) it was 100.0** %. Moreover, the figures for the “Percentage increase in pain threshold” value in the assay on Kunming mice [3] (10 mg/kg S.c.), in the assay with Kunming mice [3] (20 mg/kg S.c.) and in the assay on Kunming mice [3] (40 mg/kg S.c.) were 41.11%, 73.68* % and 72.38* %, respectively. In addition, the Sedative effect in the assay on mice is recorded as 75**.

Turning to `Fc1ccc2c(C3CCN(CCCn4cnc5ccccc54)CC3)noc2c1` [II-11, 3-(1-(3-(1H-benzo[d]imidazol-1-yl)propyl)piperidin-4-yl)-6-fluorobenzo[d]isoxazole], at 5-HT2A receptor, the inhibition at 10 µM was 99.6%. Moreover, the Sedative effect with mice worked out at 0.

For the compound `Fc1ccc2c(C3CCN(CCCCn4ccc5ccc(Cl)cc54)CC3)noc2c1` [II-10, 3-(1-(4-(6-chloro-1H-indol-1-yl)butyl)piperidin-4-yl)-6-fluorobenzo[d]isoxazole], the Sedative effect in the assay on mice is 99**.

As to `Fc1ccc2c(C3CCN(CCCCn4cnc5ccccc54)CC3)noc2c1` [II-12, 3-(1-(4-(1H-benzo[d]imidazol-1-yl)butyl)piperidin-4-yl)-6-fluorobenzo[d]isoxazole], the inhibition at 10 µM at 5-HT2A receptor amounted to 99.5%. Also, the Sedative effect in the assay on mice was 52*.

On to `Fc1ccc2c(C3CCN(CCCCCn4ccc5ccccc54)CC3)noc2c1` [II-4, 3-(1-(5-(1H-indol-1-yl)pentyl)piperidin-4-yl)-6-fluorobenzo[d]isoxazole], for which, on 5-HT2A receptor, the inhibition at 10 µM came to 99.9%. Besides, the Sedative effect with mice was 91**.

On to `CN1CC[C@]23c4c5ccc(O)c4O[C@H]2[C@@H](O)C=C[C@H]3[C@H]1C5` [Morphine, reference compound], for which the “Percentage increase in pain threshold” value in the assay with Kunming mice [3] (positive control, 2 mg/kg S.c., hot plate 55° C.) is on record as 202.5** %.

Consider `Fc1ccc2c(C3CCN(CCCn4ncc5ccccc54)CC3)noc2c1` [II-13, 3-(1-(3-(1H-indazol-1-yl)propyl)piperidin-4-yl)-6-fluorobenzo[d]isoxazole], for which the Sedative effect in the assay on mice was 66*.

For `N#Cc1ccc2ccn(OCCN3CCC(c4noc5cc(F)ccc45)CC3)c2c1` [IV-1, 1-(2-(4-(6-fluorobenzo[d]isoxazol-3-yl)piperidin-1-yl)ethoxy)-1H-indole-6-carbonitrile], the Sedative effect with mice was 20.

With `COC(=O)c1ccc2ccn(CCCN3CCC(c4noc5cc(F)ccc45)CC3)c2c1` [II-7, methyl 1-(3-(4-(6-fluorobenzo[d]isoxazol-3-yl)piperidin-1-yl)propyl)-1H-indole-6-carboxylate], the Sedative effect with mice is recorded as 96**.
